# Columns and labels:
# [1] = test system: T47D, TYS-4 and TDG-1 cells; assay: MTS proliferation assay, T47D, TYS and TDG cells; assay type: cell-based, human; conditions: 4 days
# Protocol: FIG. 30 compares the ability of BHPI and test compounds to inhibit proliferation of T47D, TYS and TDG cells. T47D cells were in medium containing 10 FBS (which contains estrogen), TYS-4 and TDG-1 cells were in medium containing 10% cd-FBS (estrogen depleted). Cells are plated at 2,000 cells/well in 96 well plates. After 24 hours in medium containing FBS or charcoal-dextran treated FBS (depleted of endogenous estrogens), the indicated concentration of each compound (in DMSO at 1/1000th of the volume of medium) was added. After 2 days the medium was changed, and the compounds were added again. After 2 additional days (4 days total) MTS assays are used to evaluate cell proliferation. (n=6±S.E.M.).
# [2] = test system: ERα positive and ERα negative cell lines; assay type: cell-based
# Protocol: ERα positive MCF-7 breast cancer, Caov-3 ovarian cancer and ECC-1 uterine cancer cells and ERα negative MDA-MB-231 human breast cancer cells and HeLa, human cervical carcinoma cells and MCF-10A human mammary epithelial cells were plated at 10,000 cells/well (96 well plate) in 50 μl of medium. After about 18 hours, an additional 50 μl of medium containing 2× the desired final concentration of the test compound (C-105) was added to each well (final vol. 100 μl/well). After 24 hours Alamar Blue reagent was added and fluorescence in the wells was read after 1 hour (BMG PheraStar Microplate Reader). % relative death was determined by setting the reading for 10,000 nM raptinal-treated cells to 100% dead cells and the reading for vehicle-treated cells to 0% dead cells. (Data is the average±SEM of 3 independent experiments with 5 biological replicates for each sample within each independent experiment.)
# FIG. 3 compares the ability of (±)-105 to kill ERα positive and ERα negative cells. The dose response tests the ability of (±)-105 to rapidly kill ERα positive and ERα negative cells. […] After 24 hours Alamar Blue reagent was added and fluorescence in the wells was read. % relative death was determined by setting the reading for […] raptinal-treated cells to 100% dead cells and the reading for vehicle-treated cells to 0% dead cells. […]
# TDG cells (T47DERαD538G) = assay: Trypan Blue exclusion cell death assay, TDG cells; assay type: cell-based, human; conditions: 24 hours; for killing of TDG-Luc cells: dose response
# Excerpt: (§1) TRYPAN BLUE: For decades, viable cells have been measured by their ability to exclude the dye Trypan Blue. […] Dead cells, which have lost membrane integrity, take up the dye and are blue. Thus, the percentage of dead cells is the percentage of cells that are Trypan Blue positive out of the total cell population. Quantitative assessment of Trypan Blue uptake uses a cell counter from Fisher. Since the assay is instrument based, there is no observer bias in determining the percentage of Trypan Blue positive cells.
# (§2) TRYPAN BLUE ASSAYS: Assays are performed on cells in 6 well plates: 300,000 cells are plated in each well of a 6 well plate in 3 ml of medium. After 24 hours, the DMSO vehicle or the indicated compound is added (in 1000th of the vol.) The cells incubated for an additional 24 hours, and then harvested in 0.25 ml of trypsin, followed after harvest by 0.75 ml of medium. The cells are spun down and resuspended in 100-200 μl of medium left that is over the cell pellet (resuspend cells by pipetting up and down a few times). Add 10 μl to 10 μl of trypan blue. Then 10 μl is inserted into the counting slide. After inserting the slide into the Fisher TC20 counting is automatic (these many cells are needed because an accurate ratio of Trypan Blue positive to Trypan Blue negative cells requires about 200 cells in the field the instrument counts).
# The Trypan Blue cell death assay was used to evaluate the ability of the active enantiomer of C-105 [(−)-105] to kill ERα positive TDG-Luc cells. For all studies, 300,000 TDG-Luc cells/well in 10% FBS were plated in a 6 well plate in triplicate. 24 hours after plating, the indicated concentrations the active enantiomer of (−)-105, or BHPI (top) ICI, or OHT (Lower left) or (+)-105 (lower right) were added. After 24 hours, the cells were harvested, and the % dead cells was determined by automated Trypan Blue exclusion using the Countess II automated hemocytometer. Percentage of viable cells was calculated by doing 100−(Cell Death %). (n=3±SEM).
# TDG cells were incubated for 24 hours with 75 nM of BHPI or 75 nM of each of the indicated test compounds: 4, 6 and (±)-105 (enantiomers not separated). Cell death was determined using the instrument-based Trypan Blue exclusion assay. Structures are in the Synthesis section. […] (n=3±SEM).
# [3] = test system: MCF-7 ERα Y537S-luciferase cells; assay: Long-term cell culture experiment, MCF-7Y537S cells; assay type: cell-based, human; conditions: conditions as FIG. 15
# OVCAR-3 cells = conditions: OVCAR-3 orthotopic xenograft
# MCF-7 and TYS-Luc cells = assay: Cell death with 2-APB or thapsigargin (Trypan Blue exclusion); assay type: cell-based, human; conditions: 2-APB
# Protocol: ERα positive MCF-7 and TYS-Luc were treated with DMSO vehicle (Veh), or BHPI or (−)-105 plus or minus 2-APB for the indicated times. Cells death was determined using the instrument-based Trypan Blue exclusion assay. […] This is consistent with (−)-105 inducing powerful lethal activation of the anticipatory UPR pathway. (n=3±SEM). […] TYS-Luc cells were maintained in DMSO vehicle (Veh) or BHPI, or (−)-105 with or without thapsigargin (THG) for the indicated times. Blocking the decline in ATP levels (FIG. 19) with THG inhibited (−)-105-induced cell death. […] (n=3±SEM).
# MCF-7 tumors = assay: MCF-7 orthotopic tumor model; assay type: in vivo, mouse; conditions: mouse, in vivo
# Protocol: FIG. 39. SERK-F6 eradicates wild-type ERα tumors via hyperactivation of aUPR. a, MCF-7 orthotopic tumors were established in Nu/J ovariectomized mice supplemented with a 60 day E2 pellet (0.36 mg) and grown to ˜400 mm^3 (28 days to establish), randomized, then treated with vehicle daily (n=3), vehicle weekly (n=3), fulv. weekly (5 mg/mouse, s.c., n=6), SERK-F6 daily (10 or 40 mg/kg p.o.). Vehicle arms were averaged. p values: *: p<0.05, **: p<0.01, ***: p<0.001, ****: p<0.0001. Tumor images were taken at the end of the study (day 21) and are representative of all tumors (n=6). b-e, MCF-7 cells were orthotopically bi-laterally grafted and tumors were grown until total tumor burden was ˜ 400 mm^3 prior to daily treatment with vehicle or SERK-F6 (40 mg/kg p.o.). Mice (n=5 per arm) were sacrificed after 3 days (b,c) and 7 days (d,e) and tumors harvested. […] Vinculin (Vin) was used as a loading control. […] Error bars represent S.E.M.
# FIG. 40. SERK-F6 is tolerated, reaches biologically relevant concentrations, and crosses the blood-brain barrier in vivo. a, Serum concentrations of SERK-F6 after indicated doses, route of administration, and time. Concentration was determined via LC/MS/MS analysis. […] AUC: Area Under the Curve, Cmax: maximum concentration, t1/2: half-life. c,d, Mice (CD-1) were treated with the indicated doses and times, then sacrificed and their serum and brains collected. Concentrations were determined via LC/MS/MS analysis. […] Treatment arms: vehicle daily (n=3), vehicle weekly (n=3), fulv. weekly (5 mg/mouse, s.c., n=6), SERK-F6 daily (10 or 40 mg/kg p.o.). Vehicle arms were combined. g, Mass of tumors harvested from mice. h, observed murine weight during this MCF-7 study (n=6). i,j, Tumor measurements for MCF-7 bilateral orthotopic model (n=4-5).
# To probe the efficacy of SERK-F6 for killing ERα positive tumors, large MCF-7 tumors were grown and then intervened with therapy. […] The mice were then sacrificed prior to complete tumor eradication.
# [4] = test system: TYS and TDG breast cancer cells; assay: Killing of TYS and TDG breast cancer cells by endocrine therapy drugs; assay type: cell-based, human
# TYS cells (T47DERαY537S) = assay: Trypan Blue exclusion cell death assay, TYS cells; assay type: cell-based, human; conditions: 24 hours
# Excerpt: as §1, §2
# TYS cells were incubated for 24 hours with 35 nM of BHPI or 35 nM of each of the indicated test compounds: 2, 4, and 105. Cell death was determined using the instrument-based Trypan Blue exclusion assay. (n=3±SEM).
# TYS cells were incubated for 24 hours with 50 nM of BHPI or 50 nM of each of the indicated test compounds: 4, 6 and 105. Cell death was determined using the instrument-based Trypan Blue exclusion assay. (n=3±SEM).
# [5] = test system: ERα Negative MCF-10A cells; assay: Trypan Blue exclusion cell death assay, MCF-10A cells; assay type: cell-based; conditions: 75 nM, 24 hours
# Excerpt: as §1, §2
# In FIG. 28, neither the test compounds nor BHPI kill non-tumorigenic ERα Negative MCF-10A breast cells. ERα Negative MCF-10A cells were maintained for 24 hours in DMSO vehicle or 75 nM of BHPI or 75 nM of each of the indicated test compounds: 4, 6 and 105. Cell death was determined using the instrument-based Trypan Blue exclusion assay. (n=3±SEM).
# Caov-3 cells = assay: Cell death of Caov-3 ovarian cancer cells (automated Trypan Blue exclusion); assay type: cell-based, human; conditions: 24 hours
# Protocol: FIG. 33. 105, but not BHPI, kills therapy-resistant ovarian CaOV-3 ovarian cancer cells. (±)-105; Cell death assay: Automated Trypan Blue exclusion. (24 hours post (±)-105) FIG. 34. (−)105 nearly eradicates ER+ drug-resistant tumors. Orthotopic breast cancer model, TYS-Luc cells, 40 mg/kg (−)-105 i.p., daily. 7 d Post injection image is a much longer exposure at higher gain than before injection image.
# Caov3: Drug resistant ERα positive ovarian cancer cells. […] These cells are completely resistant to tamoxifen and fulvestrant and partially resistant to cisplatin and paclitaxel.
structure (smiles),measurement,setting,value
"COc1ccc(C2(c3ccc(O)cc3)C(=O)Nc3c(C)cccc32)cc1 (centres unmarked) [compound 2, 3-(4-hydroxyphenyl)-3-(4-methoxyphenyl)-7-methylindolin-2-one]",effectiveness in killing ERα positive breast cancer cells compared to BHPI,[1],more effective than BHPI
"O=C1Nc2c(C(F)(F)F)cccc2C1(c1ccc(O)cc1)c1ccc(OC(F)(F)F)cc1 (single isomer, unassigned; (+)) [(+)-105, 3-(4-hydroxyphenyl)-3-(4-(trifluoromethoxy)phenyl)-7-(trifluoromethyl)indolin-2-one]",effect of the inactive enantiomer in ERα positive and ERα negative cell lines,[2],ineffective and not toxic
same,killing of TDG-Luc cells,TDG cells (T47DERαD538G),inactive and does not kill
same,effect on MCF-7Y537S cells in long-term experiments,[3],inactive
CC(=O)O[C@H]1C(=O)[C@@]2(C)[C@H]([C@H](OC(=O)c3ccccc3)[C@]3(O)C[C@H](OC(=O)[C@H](O)[C@@H](NC(=O)c4ccccc4)c4ccccc4)C(C)=C1C3(C)C)[C@]1(OC(C)=O)CO[C@@H]1C[C@@H]2O [paclitaxel],effect on tumor growth / tumors,OVCAR-3 cells,ineffective
NCCOB(c1ccccc1)c1ccccc1 [2-APB],effect on (−)-105-induced cell death,MCF-7 and TYS-Luc cells; 45 and 60 min.,partially blocked
same,effect on (−)-105-induced cell death,MCF-7 and TYS-Luc cells; 30 minutes,nearly completely blocked
"C[C@]12CC[C@@H]3c4ccc(O)cc4C[C@@H](CCCCCCCCC[S+]([O-])CCCC(F)(F)C(F)(F)F)[C@H]3[C@@H]1CC[C@@H]2O (some centres unmarked) [fulvestrant, reference compound]",killing of TDG-Luc cells,TDG cells (T47DERαD538G),do not kill
same,effect on large established MCF-7 tumors,MCF-7 tumors,dramatic effects against these large and established tumors are not obtained
same,ability to kill TYS and TDG breast cancer cells,[4],no ability at all to kill
"O=C1Nc2c(C(F)(F)F)cccc2C1(c1ccc(O)cc1)c1ccc(OC(F)(F)F)cc1 (racemic) [(±)-105, 3-(4-hydroxyphenyl)-3-(4-(trifluoromethoxy)phenyl)-7-(trifluoromethyl)indolin-2-one]",selectivity for ERα positive cancer cell lines,"[2]; 0-10,000 nM, 24 hours",selective for ERα positive cancer cell lines
same,ability to kill TDG cells compared to BHPI,TDG cells (T47DERαD538G); 75 nM,greatly increased ability to kill
same,ability to kill TYS cells compared to BHPI,TYS cells (T47DERαY537S); 35 nM,greatly increased ability to kill
same,ability to kill TYS cells compared to BHPI,TYS cells (T47DERαY537S); 50 nM,increased ability to kill
same,death of ERα Negative MCF-10A cells,[5],neither BHPI nor any of the test compounds induce significant death
same,effectiveness in killing ERα positive breast cancer cells compared to BHPI,[1],more effective than BHPI
same,killing of Caov-3 ovarian cancer cells,Caov-3 cells,kills
"Cc1cccc2c1NC(=O)C2(c1ccc(O)cc1)c1ccc(OC(F)(F)F)cc1 (centres unmarked) [compound 6, 3-(4-hydroxyphenyl)-7-methyl-3-(4-(trifluoromethoxy)phenyl)indolin-2-one]",death of ERα Negative MCF-10A cells,[5],neither BHPI nor any of the test compounds induce significant death
same,effectiveness in killing ERα positive breast cancer cells compared to BHPI,[1],more effective than BHPI
CC/C(=C(\c1ccccc1)c1ccc(OCCN(C)C)cc1)c1ccccc1 [tamoxifen],ability to kill TYS and TDG breast cancer cells,[4],no ability at all to kill

# From US12180159B2, “Activators of the unfolded protein response” (The Board of Trustees of the University of Illinois, priority 2018, dated 2024)
